From US8618114B2 (priority 2008, dated 2013)

Assays:
mice = assay: Passive avoidance in the shuttle chamber, amnesia caused by MK-801, mice; assay type: in vivo, mouse; conditions: MK-801 0.1 mg/kg i.p., compounds injected 30 minutes before the test, FIG. 11-13
Protocol: (§1) A shuttle chamber (Ugo Basile, Italy) that consisted of two sections was used. One section was white and lightened, the other one was dark. The sections were connected through a hole which could be overlapped by automatic vertical door. The floor of the dark section was made of transverse metal bars on which DC current impulses could be fed.
(§2) On the first day of testing 30 minutes before training the animals were injected intraperitoneally with Scopolamine which causes disturbance of training (memory loss). The animals of the trial group were additionally administered with one of the tested compounds. The animals of the control group were injected with physiological solution. Each group consisted of 8 animals. The animals were placed in the light section, and latent period of the first entry into the dark chamber was registered. Then vertical door was closed and the animal was punished by 0.6 mA DC current for 3 seconds. After that the animal was taken back to its home cage. In 22-24 hours the same animal was placed again in the light section of the shuttle chamber and latent period of its first entry into the dark section, the total time of its stay in the light section and the number of entries into the dark section were registered. Each monitoring lasted for 5 minutes.
14.2.1. Passive Avoidance of mice in the Shuttle Chamber. The test was carried out as in example 14.1.1. […]

male mice of BALB/c line [1] = assay: Passive avoidance in the shuttle chamber, Scopolamine amnesia model, mice; assay type: in vivo, mouse; conditions: compounds injected 30 minutes before the test, read 24 hours after training, FIG. 4-6
Protocol: (§3) 14.1.1. Passive Avoidance of mice in the Shuttle Chamber. The experiments were carried out in aged male mice of BALB/c line weighing 20-24 g or male rats weighing 200-250 g.
as §1
as §2, with “In 22-24 hours the same animal was placed again in the light section of the shuttle chamber and latent period of its first entry into the dark section, the total time of its stay in the light section and the number of entries into the dark section were registered. Each monitoring lasted for 5 minutes.” left out

5-HT6 receptor [2] = target: T1, 5-HT6 receptor (Homo sapiens (Human), UniProt P50406); assay: functional assay for serotonin 5-HT6 receptor inhibition (serotonin-induced intracellular cAMP, LANCE cAMP kit, HEK 293 cells); assay type: cell-based; conditions: HEK 293 cells with expressed 5-HT6 receptor; reduction of serotonin-induced intracellular cAMP
T1 sequence (P50406 whole entry): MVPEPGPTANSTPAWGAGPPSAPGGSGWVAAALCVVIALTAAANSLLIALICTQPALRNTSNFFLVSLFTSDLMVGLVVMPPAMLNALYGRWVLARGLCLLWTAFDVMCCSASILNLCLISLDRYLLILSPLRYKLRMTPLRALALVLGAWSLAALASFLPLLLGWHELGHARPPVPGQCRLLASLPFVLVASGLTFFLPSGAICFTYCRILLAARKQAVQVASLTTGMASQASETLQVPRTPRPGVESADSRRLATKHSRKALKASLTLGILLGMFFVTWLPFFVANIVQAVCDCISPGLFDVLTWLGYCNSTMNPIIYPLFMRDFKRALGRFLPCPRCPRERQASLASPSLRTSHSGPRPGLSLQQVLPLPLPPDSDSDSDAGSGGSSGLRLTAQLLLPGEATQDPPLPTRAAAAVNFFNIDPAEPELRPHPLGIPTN
Protocol: Determination of antagonistic activity of compounds of the general formula 1 towards 5-HT6 receptors. Compounds of the general formula 1 were tested for their ability to prevent 5-HT6 receptors activation by serotonin. HEK 293 cells (cells of human embryo's kidney) with artificially expressed 5-HT6 receptor, activation of which by serotonin leads to increasing the concentration of intracellular cAMP, were used. The level of intracellular cAMP was determined using reagent kit LANCE cAMP (PerkinElmer) according to the method described by the manufacturer of the kit [http://las.perkinelmer.com/content/Manuals/MAN_LANCEcAMP384KitUser.pdf]. Effectiveness of the compounds was estimated by their ability to reduce the level of intracellular cAMP induced by serotonin. Table 4 presents IC50 values for the compounds of general formula 1 in the setting of functional assay for serotonin 5-HT6 receptor inhibition. The data given testify their moderate or high antagonistic activity.

rats = assay: Passive avoidance in the shuttle chamber, amnesia caused by MK-801, rats; assay type: in vivo, rat; conditions: MK-801 0.1 mg/kg i.p., compounds injected 60 minutes before the test, FIG. 8-10
5-HT6 receptor [3] = target: T1, 5-HT6 receptor; assay: competitive radioligand binding ([3H] Lysergic acid diethylamide) to serotonin 5-HT6 receptors, HeLa cell membranes; conditions: read-out: IC50, competitive assay of serotonin 5-HT6 receptor inhibition; displacement of 1.5 nM [3H] Lysergic acid diethylamide, 120 min at 37° C.
Protocol: Determination of activity of the compounds of the general formula 1 in the setting of competitive binding to serotonin 5-HT6 receptors.
Screening of the disclosed compounds for their potential ability to interact with serotonin 5-HT6 receptors was carried out by method of radioligand binding. For this purpose membrane species were prepared from expressing recombinant human 5-HT6 receptors HeLa cells by means of their homogenization in glass homogenizer with subsequent separation of plasmatic membranes from cell nucli, mitochondria's and cell wreckages by differential centrifugation. Determination of tested compounds binding to 5-HT6 receptors was carried out according to the method described in [Monsma F J Jr, Shen Y, Ward R P, Hamblin M W and Sibley D R, Cloning and expression of a novel serotonin receptor with high affinity for tricyclic psychotropic drugs. […] After incubation the samples were filtered in vacuo on glass-microfiber filters G/F (Millipor, USA), filters were washed three times with cold solution of the medium and radioactivity was measured by scintillation counter MicroBeta 340 (PerkinElmer, USA). Nonspecific binding which made up 30% of overall binding was determined by incubation of membrane preparations with radioligand in the presence of 5 μM Serotonin (5-HT). Methiothepin was used as positive control. Binding of the tested compounds to the receptor was determined by their ability to displace the radioligand and expressed in percent of displacement. The percent of displacement was calculated according to the following equation:
[formula] wherein: TA—was overall radioactivity in the presence of radioligand only, CA—was radioactivity in the presence of radioligand and tested compound and NA—was radioactivity in the presence of radioligand and Serotonin (5 μM).

male mice of BALB/c line [4] = assay: Porsolt's Forced Swim Test; assay type: in vivo, mouse; conditions: i.p. for 4 days subchronically; FIG. 18
Protocol: 17.1. Mice Behavior in Porsolt's Forced Swim Test. Expression of behavioral despair was offered to use as a model for investigation of antidepressant activity in Porsolt's test (1977, 1978). That is, the behavior of a mouse or rat in a closed basin, from which the animal can not get out, cheracterizes the level of its despair which could be reduced by means of antidepressant intake.
Male mice of BALB/c line weighing about 20-30 g were used in the test. The animals were placed for 15 minutes in the basin (of 300 mm height, 480 mm diameter) filled with water to 70% of its volume at 25° C. In 3-5 minutes swimming activity began to decrease and change by phases of movement and immobility. […] Data for the last 5 minutes of the test were taken for the analysis. Automated computerized detection of motion with videosystem and Any-maze program were used in the test. The tested compounds 1.2.7(1) and 1.2.22(18) were injected intraperitonelly for 4 days subchronically.

male rats = assay: Passive avoidance in the shuttle chamber, Scopolamine amnesia model, rats; assay type: in vivo, rat; conditions: compounds injected 60 minutes before the test, read 24 hours after training, FIG. 1-3
Protocol: as §3, §1
as §2, with “In 22-24 hours the same animal was placed again in the light section of the shuttle chamber and latent period of its first entry into the dark section, the total time of its stay in the light section and the number of entries into the dark section were registered. Each monitoring lasted for 5 minutes.” left out

Mice of SHK line = assay: Prepulse inhibition of the startle response in mice (Apomorphine model); assay type: in vivo, mouse; conditions: 1 mg/kg i.p. 60 minutes before the test; FIG. 17
Protocol: Mice of SHK line weighing about 24-30 g were used in the test. The experiments were carried out during the light period of animal's diurnal. Apomorphine hydrochloride and Haloperidol were received from Sigma Chemicals Company, (USA). Apomorphine hydrochloride was dissolved in 0.1% solution of ascorbic acid prepared with sterilized water; it was introduced subcutaneously 15 minutes before the test. Haloperidol was dissolved in sterilized water using emulsifier Twin 80, it was introduced intraperitoneally 60 minutes before the test. Compounds 1.2.22(1), 1.2.22(18), 1.2.7(1) were dissolved in sterilized water and introduced intraperitoneally 60 minutes before the test. The injection volume was 10 ml/kg. 0.1%. Solution of ascorbic acid, prepared with sterilized water and Twin 80, was injected to control group of animals.
The test instrument consisted of a chamber made of transparent plexiglass (manufacturer—Columbia Instruments Company, USA) and placed on the platform; the latter was lodged inside the sound insulating chamber. A high frequency sound column transmitting acoustic stimuluses was located 2 cm away from the platform. […] The level of background noise made up 65 dB. Each animal received 4 stimuli of single testing (pulse) stimulus of 50 ms duration and 105 dB or prepulsory stimulus (pre-pulse) of 20 ms duration and 85 dB, after which in 30 ms pulse stimulus of 50 ms duration and 105 dB followed. Time interval between repeated pulse or prepulse in combination with pulse stimuli made up 10 s. Inhibition of the startle in reply to prepulse-plus-pulse stimulus was calculated in percentage towards amplitude of startle in response to isolated pulse stimulus.

male mice of SHK line = assay: Novel object recognition test, Scopolamine amnesia model; assay type: in vivo, mouse; conditions: Scopolamine 1 mg/kg i.p.; compounds i.p. 60 minutes before training; FIG. 7
Protocol: 14.1.2. Novel object recognition test. The test was carried out in aged male mice of SHK line. […] A mouse was placed into the central chamber and allowed to explore the maze. The floor was cleaned after each animal. The sequence of chamber entries and duration of visits were registered by the observer. The test was ended after 13 entries into the dead-end chambers. Criterion for entry was a location of all animal's paws inside the chamber at the same time.
During the training the animal was placed in the maze with one equiform bowl in each side chamber. In the course of testing (one hour after training) two opposite standing bowls were replaced by identical flasks, and the animal was allowed to explore the maze. The time spent by the animal in each side chamber was registered during the periods of training and testing. Index of novel object recognition was calculated as the ratio of time spent by the animal in the side chambers with novel objects to the total time spent by it in all side chambers.

male mice of BALB/c line [5] = assay: Tail suspension test; assay type: in vivo, mouse; conditions: i.p. during 4 days; FIG. 19
From the text: 17.2. Mice behavior in tail suspension test. Tail suspension test was described by Steri et al. (1985) as a convenient method for investigation of potential antidepressants. It is supposed that forced immobility in rodents could be used as a model for investigation of depressive disorders at humans. Clinically effective antidepressants lower mice immobility which follows negative attempts to become free when their tails are fixed.
Male mice of BALB/c line weighing about 20-30 g were used in the test. The animals were suspended by tail with a sticky tape on the holder over a horizontal surface at a height of about 40 cm, and the total duration of complete immobility episodes was registered in the course of 3 minutes. […] Automated computerized detection of motion with videosystem and Any-maze program were used in the test. The tested compounds 1.2.7(1) and 1.2.22(18) were administered intraperitoneally during 4 days. Reference substances (Fluoxetine, Desipramine) were injected intraperitoneally 15 minutes before the beginning of the test.

Row | Structure (SMILES) | effect on amnesia caused by MK-801 (latent period, light arm stay, dark arm entries) (mice) | effect on amnesia caused by Scopolamine (latent period, light arm stay, dark arm entries) (male mice of BALB/c line [1]) | IC50 (5-HT6 receptor [2]) | effect on amnesia caused by MK-801 (latent period, light arm stay, dark arm entries) (rats) | IC50 (5-HT6 receptor [3]) | antidepressant activity, immobility during the final 5 minutes in Porsolt's test (male mice of BALB/c line [4]) | effect on amnesia caused by Scopolamine (latent period, light arm stay, dark arm entries) (male rats) | effect on Apomorphine-disturbed prepulse inhibition of startle (Mice of SHK line) | prevention of Scopolamine-disturbed novel object recognition (male mice of SHK line) | antidepressant activity, immobility in tail suspension test (male mice of BALB/c line [5])
1 | Cc1cc(C)n2nc([S+](C)[O-])c(S(=O)(=O)c3ccccc3)c2n1 (stereo not drawn) [1(1)] | decrease amnesia caused by MK-801 | decrease amnesia | – | – | – | – | – | – | – | –
2 | CSc1nn2c(C)cc(CO)nc2c1S(=O)(=O)c1ccccc1 [1.1.7(1), 5-(hydroxymethyl)-7-methyl-2-methylsulfanyl-3-phenylsulfonyl-pyrazolo[1,5-a]pyrimidine] | decrease amnesia caused by MK-801 | – | 177 nM | – | – | – | – | – | – | –
3 | CNc1nn2c(C)cc(CO)nc2c1S(=O)(=O)c1ccccc1 [1.2.7(1), 5-(hydroxymethyl)-7-methyl-2-methylamino-3-phenylsulfonyl-pyrazolo[1,5-a]pyrimidine] | – | – | 19 nM | decrease amnesia caused by MK-801 | 0.88 nM | exhibits antidepressant activity | decrease amnesia | prevented disturbance of prepulse inhibition of startle caused by Apomorphine | prevent memory impairment caused by Scopolamine | antidepressant activity comparable with the activity of Fluoxetine and Desipramine
